# Source: patent publication US10781162B2 (UCL BUSINESS Ltd, priority 2016, dated 2020)
# Columns and labels:
# [1] = In vitro dissolution and aqueous solubility study in distilled water
# Method: The dissolution experiment was carried out in triplicate on both the diethyl tetrathiomolybdate salt and the ammonium tetrathiomolybdate salt.
# [2] = Method: The in vitro dissolution and aqueous solubility behaviour at 25° C. was also investigated for the DEA-TTM salts synthesised by routes A, B and C as outlined in Example 1.5 above (Almac Sciences, Northern Ireland).
# [3] = H2S gas detection assay (H2S gas release in PBS); format: physicochemical; conditions: for quantity of H2S gas released under standard conditions: PBS, pH 7.4, 37° C., incubation 1 hour, FIG. 12A
# Source text: A, B and C denote the synthetic route of manufacture of DEA-TTM, with respect to FIG. 6.
# If the sample is drawn in the latter part of the 10-second bin, the second or third reading may be the highest. A direct correlation ([…], straight line model, r^2=0.992; see FIG. 11) was observed on comparing the peak H2S value against the sum of the washout readings (decay) over time (area under curve, AUC). As the time to washout and the sum of values therein are directly proportional to the peak quantity of gas initially detected, it is appropriate to consider only the peak H2S gas level to determine the total amount of H2S gas release.
# Initial testing of DEA-TTM salts A, B and C was carried out under standard conditions (dissolution in PBS, pH 7.4, incubation for 1 hour). […] Acidic conditions are shown to favour sulfide release.
smiles,measurement,setting,value
"[NH4+].[NH4+].[SH-].[SH-].[S]=[Mo]=[S] [ATTM, ammonium tetrathiomolybdate]",solubility in distilled water,[1],ca. 2 mg/ml
same,dissolution time,[1]; distilled water,over 1 hour
same,solubility in water at 25° C.,[2],2000 µg/mL
same,"thiol dependence of H2S release (increase, in words)",[3]; for reference,six-fold increase
CC[NH2+]CC.CC[NH2+]CC.[S]=[Mo](=[S])([S-])[S-] [diethylamine tetrathiomolybdate],quantity of H2S gas released under standard conditions,[3]; listed as salt B,released the least H2S gas
same,quantity of H2S gas released under standard conditions,[3]; listed as salt C,released the most H2S gas
